“And” between values parts separate entries of the source, which are not always exact repeats. Identical values can stand only once. Like-named read-outs stand apart in the source and are kept apart here.
Experiments:
[1] = Oral bioavailability of Compound A 25-mg and 100-mg oral tablets, fasted and fed, in healthy adult subjects; type: in vivo, human; settings: for Tmax: read-out: tmax (median)
Experimental: The primary objectives were to evaluate the oral bioavailability of Compound A when administered as single dose of 150 mg, composed of 6×25-mg oral tablets, under fasted and fed conditions, and as single dose of 300 mg, composed of 3×100-mg oral tablets, under fasted conditions in healthy adult subjects Part I was conducted to assess the bioavailability of new 25 mg oral tablets of Compound A under fasted and fed conditions, and of new 100 mg oral tablets of Compound A under fasted conditions, in healthy adult subjects. In Treatment Period 1 of Part I, all 16 subjects received a single 150 mg dose (6×25 mg oral tablets) under fed conditions (Treatment A). Thereafter, subjects were randomly assigned to either Arm 1 or Arm 2 in a 1:1 ratio. In Arm 1, subjects received a single 150 mg dose (6×25 mg oral tablets) under fasted conditions in Treatment Period 2 (Treatment B). In Arm 2, subjects received a single 300 mg dose (3×100 mg oral tablets) under fasted conditions in Treatment Period 2 (Treatment C). Full pharmacokinetic (PK) profiles of Compound A were determined over approximately 768 hours […] after Compound A administration on Day 1 of each treatment period. Safety and tolerability were assessed throughout the study. In Part I, 16 healthy adult subjects were included. After Treatment A (150 mg Compound A, fed) in Treatment Period 1, subjects were randomly assigned to either Arm 1 (n=8; Treatment B [150 mg Compound A, fasted]) or Arm 2 (Treatment C [[…]; 300 mg Compound A, fasted]) in a 1:1 ratio in Treatment Period 2. Fifteen subjects completed study participation in Part I, but all 16 subjects were included in the PK and safety analyses. […] Subjects had to be healthy on the basis of medical and surgical history, physical examination, 12 lead electrocardiogram (ECG), vital signs, and clinical laboratory tests performed at screening. Male and female subjects had to adhere to the contraceptive requirements as specified in the protocol. The study consisted of a screening phase, an admission phase, a treatment phase, and a follow-up phase (posttreatment phase). During the follow-up phase, subjects returned to the study site 10-14 days and 30-35 days after study drug administration in the last treatment period for a follow-up visit. The duration of each treatment phase was 33±3 days and the study duration per individual subject was at least 61 days (including admission and follow-up period), screening period not included.

[2] = Safety and tolerability of single ascending doses in healthy Japanese volunteers; type: in vivo, human
Experimental: A double-blind, placebo-controlled study was done to assess the safety, tolerability, and pharmacokinetics (PK) of Compound A. Thirty-two healthy adult Japanese volunteers were randomized into four cohorts. The volunteers were randomized 3:1 to receive a single dose of Compound A or placebo in a fasted state (see FIG. 4). The safety, tolerability and PK plasma profiles of Compound A were assessed after each dose. Full plasma PK profiles were determined up to 28 days after each single dose of Compound A. Urinary elimination was assessed in Cohort C (see FIG. 4) for 7 day. […] The treatment emergent adverse events (TEAEs) reported reported were hiccups, upper respiratory tract infection, nasal congestion, and cough. […] No significant laboratory abnormalities were discovered, most laboratory abnormalities were Grade 1.

[3] = 150 mg, 6 × 25 mg, Fasting, Treatment B
[4] = 150 mg, 6 × 25 mg, Fasting, Treatment B (Reference)
[5] = 150 mg, 6 × 25 mg, Fed, Treatment A
[6] = 300 mg, 3 × 100 mg, Fasting, Treatment C
[7] = 300 mg, 3 × 100 mg, Fasting, Treatment C (Test)
[8] = Treatment A (fed) vs Treatment B (fasted), 150 mg
[9] = Treatment C (3 × 100 mg) vs Treatment B (6 × 25 mg), fasting

Question: What does the source list for C[C@H](NS(=O)(=O)c1cc(C(=O)Nc2ccc(F)c(C#N)c2)n(C)c1)C(F)(F)F [Compound A]?
Answer: AUClast, dose normalized to 25 mg (mean) [1, 3]: 29467 ng·h/mL; AUC∞, dose normalized to 25 mg (mean) [1, 3]: 30318 ng·h/mL; Cmax, dose normalized to 25 mg (mean) [1, 3]: 320 ng/mL; AUClast, dose normalized (to 25 mg), Geometric Mean [1, 4]: 27226 ng·h/mL; AUC∞, dose normalized (to 25 mg), Geometric Mean [1, 4]: 28011 ng·h/mL; Cmax, dose normalized (to 25 mg), Geometric Mean [1, 4]: 294 ng/mL; AUClast, dose normalized to 25 mg (mean) [1, 5]: 28502 ng·h/mL; AUC∞, dose normalized to 25 mg (mean) [1, 5]: 29580 ng·h/mL; Cmax, dose normalized to 25 mg (mean) [1, 5]: 257 ng/mL; AUClast, dose normalized to 25 mg (mean) [1, 6]: 30951 ng·h/mL; AUC∞, dose normalized to 25 mg (mean) [1, 6]: 32747 ng·h/mL; Cmax, dose normalized to 25 mg (mean) [1, 6]: 231 ng/mL; AUClast, dose normalized (to 25 mg), Geometric Mean [1, 7]: 30835 ng·h/mL; AUC∞, dose normalized (to 25 mg), Geometric Mean [1, 7]: 32329 ng·h/mL; Cmax, dose normalized (to 25 mg), Geometric Mean [1, 7]: 231 ng/mL; AUClast Geometric Mean Ratio [1, 8]: 101.05%; AUC∞ Geometric Mean Ratio [1, 8]: 101.91%; Cmax Geometric Mean Ratio [1, 8]: 85.8% and 85.84%; Cmax lower under fed conditions [1, 8]: 14.2%; Mean (range) t½term ([1]; Treatment A, 150 mg fed): 134.3 (65.7-221.6) hours; Mean (range) t½term ([1]; Treatment B, 150 mg fasted): 123.9 (72.3-195.7) hours; AUClast, dose normalized, Geometric Mean Ratio [1, 9]: 113.26%; AUC∞, dose normalized, Geometric Mean Ratio [1, 9]: 115.42%; Cmax, dose normalized, Geometric Mean Ratio [1, 9]: 78.4% and 78.44%; dose normalized Cmax lower for the 100 mg tablet strength compared to the 25 mg tablet strength ([1]; Treatment C vs Treatment B, fasted): 21.6%; Mean (range) t½term ([1]; Treatment C, 300 mg fasted): 161.1 (111.5-257.3) hours; AUC(0-t) ([1]; both sexes, human, in vivo, oral, 150 mg, 6 × 25 mg, Fasting, Treatment B (Reference), read-out: AUClast, Geometric Mean): 163 µg·h/mL; AUC(0-inf) ([1]; both sexes, human, in vivo, oral, 150 mg, 6 × 25 mg, Fasting, Treatment B (Reference), read-out: AUC∞, Geometric Mean): 168 µg·h/mL; Cmax ([1]; both sexes, human, in vivo, oral, 150 mg, 6 × 25 mg, Fasting, Treatment B (Reference), read-out: Cmax, Geometric Mean): 1770 ng/mL; AUC(0-t) ([1]; both sexes, human, in vivo, oral, 150 mg, 6 × 25 mg, Fasting, Treatment B, read-out: AUClast (mean)): 177 µg·h/mL; AUC(0-inf) ([1]; both sexes, human, in vivo, oral, 150 mg, 6 × 25 mg, Fasting, Treatment B, read-out: AUC∞ (mean)): 182 µg·h/mL; Cmax ([1]; both sexes, human, in vivo, oral, 150 mg, 6 × 25 mg, Fasting, Treatment B, read-out: Cmax (mean)): 1920 ng/mL; Tmax ([1]; both sexes, human, in vivo, oral, 150 mg, 6 × 25 mg, Fasting, Treatment B): 1.75 h; Cmax ([1]; both sexes, human, in vivo, oral, 150 mg, 6 × 25 mg, Fed (Standard Breakfast), Treatment A, read-out: Cmax (mean)): 1540 ng/mL; AUC(0-t) ([1]; both sexes, human, in vivo, oral, 150 mg, 6 × 25 mg, Fed, Treatment A (Test), read-out: AUClast, Geometric Mean): 165 µg·h/mL; AUC(0-inf) ([1]; both sexes, human, in vivo, oral, 150 mg, 6 × 25 mg, Fed, Treatment A (Test), read-out: AUC∞, Geometric Mean): 171 µg·h/mL; Cmax ([1]; both sexes, human, in vivo, oral, 150 mg, 6 × 25 mg, Fed, Treatment A (Test), read-out: Cmax, Geometric Mean): 1520 ng/mL; AUC(0-t) ([1]; both sexes, human, in vivo, oral, 150 mg, 6 × 25 mg, Fed, Treatment A, read-out: AUClast (mean)): 171 µg·h/mL; AUC(0-inf) ([1]; both sexes, human, in vivo, oral, 150 mg, 6 × 25 mg, Fed, Treatment A, read-out: AUC∞ (mean)): 177 µg·h/mL; Tmax ([1]; both sexes, human, in vivo, oral, 150 mg, 6 × 25 mg, Fed, Treatment A): 4 h; AUC(0-t) ([1]; both sexes, human, in vivo, oral, 300 mg, 3 × 100 mg, Fasting, Treatment C, read-out: AUClast (mean)): 371 µg·h/mL; AUC(0-inf) ([1]; both sexes, human, in vivo, oral, 300 mg, 3 × 100 mg, Fasting, Treatment C, read-out: AUC∞ (mean)): 393 µg·h/mL; Cmax ([1]; both sexes, human, in vivo, oral, 300 mg, 3 × 100 mg, Fasting, Treatment C, read-out: Cmax (mean)): 2770 ng/mL; Tmax ([1]; both sexes, human, in vivo, oral, 300 mg, 3 × 100 mg, Fasting, Treatment C): 3 h; clearance ([1]; both sexes, human, in vivo, oral, over all treatments and individuals, read-out: Clearance (CUF)): 7.83 to 25.8 mL/min; Deaths ([2]; 25 mg single dose (n = 6)): 0; Grade 2 AEs: Bilirobin increased ([2]; 25 mg single dose (n = 6)): 0; Grade 2 AEs: Cholesterol increased ([2]; 25 mg single dose (n = 6)): 0; Grade 2 AEs: Fibrinogen decreased ([2]; 25 mg single dose (n = 6)): 0; Grade 2 AEs: Leukocytes decreased ([2]; 25 mg single dose (n = 6)): 0; Grade 2 AEs: Triglycerides increased ([2]; 25 mg single dose (n = 6)): 1; SAEs ([2]; 25 mg single dose (n = 6)): 0; Treatment-emergent AEs Related to Compound A ([2]; 25 mg single dose (n = 6)): 0; Volunteers with ≥0.1 AE (treatment-emergent AEs) ([2]; 25 mg single dose (n = 6)): 0; Deaths ([2]; 150 mg single dose (n = 6)): 0; Grade 2 AEs: Bilirobin increased ([2]; 150 mg single dose (n = 6)): 0; Grade 2 AEs: Cholesterol increased ([2]; 150 mg single dose (n = 6)): 0; Grade 2 AEs: Fibrinogen decreased ([2]; 150 mg single dose (n = 6)): 0; Grade 2 AEs: Leukocytes decreased ([2]; 150 mg single dose (n = 6)): 0; Grade 2 AEs: Triglycerides increased ([2]; 150 mg single dose (n = 6)): 0; SAEs ([2]; 150 mg single dose (n = 6)): 0; Treatment-emergent AEs Related to Compound A ([2]; 150 mg single dose (n = 6)): 0; Volunteers with ≥0.1 AE (treatment-emergent AEs) ([2]; 150 mg single dose (n = 6)): 2; Deaths ([2]; 300 mg single dose (n = 6)): 0; Grade 2 AEs: Bilirobin increased ([2]; 300 mg single dose (n = 6)): 0; Grade 2 AEs: Cholesterol increased ([2]; 300 mg single dose (n = 6)): 0; Grade 2 AEs: Fibrinogen decreased ([2]; 300 mg single dose (n = 6)): 0; Grade 2 AEs: Leukocytes decreased ([2]; 300 mg single dose (n = 6)): 0; Grade 2 AEs: Triglycerides increased ([2]; 300 mg single dose (n = 6)): 1; SAEs ([2]; 300 mg single dose (n = 6)): 0; Treatment-emergent AEs Related to Compound A ([2]; 300 mg single dose (n = 6)): 0; Volunteers with ≥0.1 AE (treatment-emergent AEs) ([2]; 300 mg single dose (n = 6)): 0; Deaths ([2]; 500 mg single dose (n = 6)): 0; Grade 2 AEs: Bilirobin increased ([2]; 500 mg single dose (n = 6)): 0; Grade 2 AEs: Cholesterol increased ([2]; 500 mg single dose (n = 6)): 0; Grade 2 AEs: Fibrinogen decreased ([2]; 500 mg single dose (n = 6)): 0; Grade 2 AEs: Leukocytes decreased ([2]; 500 mg single dose (n = 6)): 0; Grade 2 AEs: Triglycerides increased ([2]; 500 mg single dose (n = 6)): 0; SAEs ([2]; 500 mg single dose (n = 6)): 0; Treatment-emergent AEs Related to Compound A ([2]; 500 mg single dose (n = 6)): 0; Volunteers with ≥0.1 AE (treatment-emergent AEs) ([2]; 500 mg single dose (n = 6)): 2; Deaths ([2]; Total (n = 32)): 0; Grade 2 AEs: Bilirobin increased ([2]; Total (n = 32)): 0; Grade 2 AEs: Cholesterol increased ([2]; Total (n = 32)): 0; Grade 2 AEs: Fibrinogen decreased ([2]; Total (n = 32)): 0; Grade 2 AEs: Leukocytes decreased ([2]; Total (n = 32)): 0; Grade 2 AEs: Triglycerides increased ([2]; Total (n = 32)): 2; SAEs ([2]; Total (n = 32)): 0; Treatment-emergent AEs Related to Compound A ([2]; Total (n = 32)): 0; Volunteers with ≥0.1 AE (treatment-emergent AEs) ([2]; Total (n = 32)): 4; Grade 3 or 4 laboratory abnormalities ([2]; single dose 25-500 mg, fasted): No Grade 3 or 4 abnormalities were reported; SAEs and premature discontinuation for an AE ([2]; single dose 25-500 mg, fasted): No volunteers experienced an SAE or prematurely discontinued the study for an AE; severity of treatment emergent adverse events (TEAEs) ([2]; single dose 25-500 mg, fasted): All TEAEs were mild; tolerability ([2]; single dose 25-500 mg, fasted): well tolerated
